The results in this text go back to patent US20230348421A1, “5-HT2A RECEPTOR INHIBITOR OR INVERSE AGONIST, PREPARATION METHOD THEREFOR, AND APPLICATION THEREOF” (GENEORA PHARMA (SHIJIAZHUANG) CO., LTD., priority 2020, published 2023).

Series [1] can be described thus: In-vivo pharmacokinetic test in rats after intragastric administration. As to conditions: SD rats; for AUC(0-t) / Cmax / MRT last / Tmax / half-life: rat, po, 46.7 umol/kg, 20% Solutol, plasma. As to the method: Blood was collected before administration and 0.25 h, 0.5 h, 1 h, 2 h, 3 h, 4 h, 6 h, 8 h, 12 h and 24 h after administration, respectively and placed in a heparinized EP tube, and the plasma was centrifugally separated. After the plasma was pre-treated, the concentrations of compounds in the plasma were determined by LC-MS/MS, and the pharmacokinetic parameters were calculated.

Series [2] can be described thus: In-vitro stability in human liver microsomes. As to conditions: for Remaining amount 60 min later: Human liver microsomes 0.5 mg/mL, 1 μM, NADPH 1 mM. The format is in vitro ADME. Here is the method: (§1) • 1) formulation of test sample working solution: the test sample was diluted to 100 μM with methanol; • 2) formulation of liver microsome working solution: liver microsomes were diluted to 0.56 mg/ml with a 100 mM phosphate buffer; • 3) formulation of reduced nicotinamide adenine dinucleotide phosphate (NADPH) working solution: an appropriate amount of NADPH was weighted and diluted to 20 mM with a phosphate buffer, and then a 60 mM MgCl2 solution with the equal volume was added; • 4) formulation of stop solution: tolbutamide was diluted to 20 ng/mL with acetonitrile to serve as a stop solution containing an internal standard.
(§2) The remaining percentage of the test sample was tested 60 min later.

Series [3] in a line: In-vitro stability in dog liver microsomes. As to conditions: for Remaining amount 60 min later: Dog liver microsomes 0.5 mg/mL, 1 μM, NADPH 1 mM. In kind it is in vitro ADME. Here is the method: as §1, §2
In a further series the target is hERG potassium channels (Homo sapiens (Human), UniProt Q12809). Description: hERG inhibitory activity, whole-cell patch clamp in CHO-hERG cells. As to conditions: read-out: hERG inhibitory activity IC50; CHO-hERG cells, whole-cell patch clamp, tail current at -50 mV.
hERG potassium channels, sequence (Q12809 whole entry): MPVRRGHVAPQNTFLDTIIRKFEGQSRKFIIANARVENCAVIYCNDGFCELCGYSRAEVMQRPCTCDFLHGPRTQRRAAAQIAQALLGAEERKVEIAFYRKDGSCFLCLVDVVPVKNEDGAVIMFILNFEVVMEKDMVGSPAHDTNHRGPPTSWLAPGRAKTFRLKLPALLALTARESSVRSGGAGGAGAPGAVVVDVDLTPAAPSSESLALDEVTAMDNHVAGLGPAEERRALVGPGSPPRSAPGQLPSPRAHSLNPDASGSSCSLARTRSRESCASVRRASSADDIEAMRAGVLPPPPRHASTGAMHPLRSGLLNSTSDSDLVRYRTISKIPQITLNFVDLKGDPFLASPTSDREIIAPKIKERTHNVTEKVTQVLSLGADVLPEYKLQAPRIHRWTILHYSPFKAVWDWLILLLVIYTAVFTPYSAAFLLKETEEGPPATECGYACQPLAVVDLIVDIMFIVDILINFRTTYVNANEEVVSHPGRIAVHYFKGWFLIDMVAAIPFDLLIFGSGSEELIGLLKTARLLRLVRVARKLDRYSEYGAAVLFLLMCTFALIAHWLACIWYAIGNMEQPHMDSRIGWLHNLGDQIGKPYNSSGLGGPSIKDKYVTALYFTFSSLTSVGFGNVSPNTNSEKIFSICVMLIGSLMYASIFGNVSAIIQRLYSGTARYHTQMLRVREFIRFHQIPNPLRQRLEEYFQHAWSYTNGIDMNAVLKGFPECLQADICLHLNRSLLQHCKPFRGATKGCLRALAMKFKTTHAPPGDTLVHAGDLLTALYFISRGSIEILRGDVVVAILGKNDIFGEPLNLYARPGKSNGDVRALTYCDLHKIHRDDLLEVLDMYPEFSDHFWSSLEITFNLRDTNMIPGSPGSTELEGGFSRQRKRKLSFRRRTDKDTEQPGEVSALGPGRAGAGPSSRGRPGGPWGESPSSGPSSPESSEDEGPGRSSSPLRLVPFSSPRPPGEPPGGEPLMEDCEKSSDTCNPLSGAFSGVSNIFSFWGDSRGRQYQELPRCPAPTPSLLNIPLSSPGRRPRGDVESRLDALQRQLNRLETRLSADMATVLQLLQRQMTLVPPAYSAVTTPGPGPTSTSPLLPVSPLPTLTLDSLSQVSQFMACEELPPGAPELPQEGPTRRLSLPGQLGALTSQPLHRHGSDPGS
In series [4] the target is T1, 5-HT2A receptor (Homo sapiens (Human), UniProt P28223). Nature of the series: Screening for 5-HT2A inverse agonistic activity (NIH3T3-5-HT2A R cells, Bright-Glo luciferase, 120 h). In kind it is cell-based. As to conditions: NIH3T3-5HT2AR cells, cell inhibition rate. As to the method:
• Cell lines: Adherent cells NIH3T3-5-HT2A R • Cell culture medium: DMEM+10% FBS (purchased from GBICO) • Cell culture plate: White-wall clear-bottom 96-well plate (purchased from Perkin Elmer) • Detection kit: Bright-Glo™ Luciferase (purchased from Promega) • Detection instrument: BioTek multifunctional microplate reader
NIH3T3-5HT2AR cells in the logarithmic growth phase were seeded into a white-wall clear-bottom 96-well plate at a density of 1000 cells per well, and cultured overnight in a 37° C., 5% CO2 incubator. […] On the sixth day, a Bright-Glo™ Luciferase reagent with a volume equal to that of cell sap was added to the cells, and the cells were incubated at room temperature in the dark for 20 min. […] The data was processed with GraphPad Prism 7.0 to obtain a cell inhibition rate curve, and the IC50 was calculated.
Cell inhibition rate (%)=[100−(Lum test drug−Lum culture solution)/(Lum cell control−Lum culture solution)×100]%

Series [5] addresses T1, 5-HT2A receptor. Nature of the series: Test for 5-HT2A antagonistic activity (calcium ion antagonism, FLIPR, CHO-K1/5-HT2A cells). The format is cell-based. As to conditions: 100 nM a-methyl-5-HT, Ca2+ signal. As to the method: • Cell lines: CHO-K1/5-HT2A (Chempartner) • Cell culture medium: DMEM/F12+10% FBS (purchased from GBICO) • Cell culture plate: 384-well Assay Plate (purchased from Corning) • Detection kit: FLIPR® Calcium 4 Assay Kit (purchased from Molecular Devices)
After that, centrifugation was performed to remove the culture medium in the cell culture plate. Dye was added, and the cells were incubated in a 37° C., 5% CO2 incubator for another 1 h. The cell culture plate was placed on the FLIPR. A compound to be tested was added, and the Ca^2+ signal was detected, wherein the compound to be tested was subjected to 3-fold gradient dilution with PBS to obtain 10 concentrations, with the highest concentration of 10 uM, and double replicate wells were set up. […] In order to determine the test stability, risperidone was used as a positive control. The data were processed with GraphPad Prism 7.0 to obtain a cell inhibition rate curve, and the IC50 was calculated.
Inhibition rate (%)=100%−[(signal value of the compound to be tested−signal value of the test solution)/(the maximum signal value−the signal value of the test solution)]×100%

The structures appear in SMILES notation.

T1 sequence (P28223 whole entry): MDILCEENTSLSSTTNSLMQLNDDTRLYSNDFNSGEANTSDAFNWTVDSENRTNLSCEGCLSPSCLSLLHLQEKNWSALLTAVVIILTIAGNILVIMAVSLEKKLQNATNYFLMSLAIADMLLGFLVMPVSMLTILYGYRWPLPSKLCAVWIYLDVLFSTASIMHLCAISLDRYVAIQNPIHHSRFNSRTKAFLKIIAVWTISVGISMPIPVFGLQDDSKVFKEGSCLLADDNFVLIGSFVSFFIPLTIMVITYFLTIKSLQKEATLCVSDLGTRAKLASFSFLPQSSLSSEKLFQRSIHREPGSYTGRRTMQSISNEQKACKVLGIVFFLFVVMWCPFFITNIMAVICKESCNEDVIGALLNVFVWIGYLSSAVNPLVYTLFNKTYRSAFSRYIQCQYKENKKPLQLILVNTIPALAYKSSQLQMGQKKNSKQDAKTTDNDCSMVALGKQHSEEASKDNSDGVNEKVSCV
Experimental for hERG potassium channels: • Name: Dimethyl sulfoxide (DMSO)
• Species & strains: CHO-hERG cell lines (Chinese hamster ovary cells stably expressing hERG channels) • Culture medium: 90% F12, 10% fetal bovine serum, 100 μg/mL G418 and 100 μg/mL hygromycin B • Culture conditions: 5% CO2, 37° C. incubator • Freezing conditions: Liquid nitrogen
Digestion was performed at room temperature for 3-5 min. The digestion solution was pipetted, and the cells were resuspended in extracellular fluid and transferred to an experimental dish for electrophysiological recording for later use.
On the day of the test, the compound was diluted with DMSO to an intermediate concentration. 10 μL of compound with the intermediate concentration was taken, transferred to 4990 μL of extracellular fluid, and subjected to 500-fold dilution to obtain a final concentration to be tested.
CHO (Chinese Hamster Ovary) cells stably expressing hERG potassium channels were taken, and hERG potassium channel currents were recorded at room temperature by means of a whole-cell patch-clamp technique. A glass microelectrode was formed by pulling a glass electrode blank (BF150-86-10, Sutter) with a glass microelectrode puller. The tip resistance was about 2-5 MΩ after perfusion of a pippette solution. The glass microelectrode could be connected to a patch clamp amplifier by inserting the glass microelectrode into an amplifier probe. Clamping voltages and data recording were controlled and recorded by a computer with pClamp 10 software, with a sampling frequency of 10 kHz and a filtering frequency of 2 kHz. After the whole-cell recording was obtained, the cells were clamped at −80 mV, and the step voltage evoking hERG potassium current (I hERG) was changed from −80 mV to +20 mV by giving a 2 s depolarization voltage and then repolarized to −50 mV for 1 s, and returned to −80 mV. Such voltage stimulation was given every 10 s, and the administration process was started after it was determined that the hERG potassium currents were stable (1 min). The compound at each test concentration was given at least 1 min, and at least 2 cells (n≥2) were tested for each concentration.
Data analysis was performed by means of pClamp 10 and GraphPad Prism 5.0 software.
The formula for calculating the degree of inhibition of different compound concentrations on hERG potassium currents (the hERG tail current peak value evoked at −50 mV) was:
Y=Bottom+(Top−Bottom)/(1+10^((LogIC50−X)*HillSlope))
wherein X is a Log value of a test concentration of a test sample, Y is the inhibition percentage at a corresponding concentration, and Bottom and Top are the minimum inhibition percentage and the maximum inhibition percentage, respectively.

For the compound `CN1CCC(N(Cc2ccc(F)cn2)C(=O)NCc2ccc(OCC(F)(F)F)cc2)CC1` [Compound 59], in series [1] (46.7 μmol/kg), the “AUClast relative to pimavanserin” value is given as 4 times, the “Cmax relative to pimavanserin” value came to 2 times and the “T1/2 compared with pimavanserin” value is reported as “higher than that of pimavanserin”. In series [1], the AUC(0-t) (commonly exposure summed from dosing to a finite time, without extrapolation to infinity) came to 17 ± 2.97 µM·h; the Cmax (as a rule, the highest concentration seen after dosing) was determined as 1140 ± 365 nM; the MRT last (usually the average time that molecules of a dose stay in the body) was 8.66 ± 0.89 h; the Tmax (usually the time at which the peak concentration occurs) is 5.88 ± 5.14 h. Moreover, in series [1], the half-life – broadly, the time needed for the level to fall by half in the phase considered – was 5.51 ± 1.33 h. Moreover, the “Remaining amount 60 min later” value in series [2] is listed as 89.19%. The “Stability compared with pimavanserin” value in series [2] (human liver microsomes in vitro) is recorded as “obviously superior stability to that of pimavanserin”. For the same compound, the “Remaining amount 60 min later” value in series [3] was 76.37%. In series [3] (dog liver microsomes in vitro), the “Stability compared with pimavanserin” value is given as “obviously superior stability to that of pimavanserin”. In addition, the IC50 (in general, the concentration needed to halve the response being measured) at hERG potassium channels worked out at 810 nM. The same compound registered a half-maximal inhibitory concentration (IC50) at 5-HT2A receptor [4] of 2.04 nM. Further, the IC50 on 5-HT2A receptor [5] came out at 0.54 nM.
With `CC(C)COc1ccc(CNC(=O)N(Cc2ccc(F)cc2)C2CCN(C)CC2)cc1` [Pimavanserin, reference compound], in series [1], the AUC(0-t) stood at 4.29 ± 1.66 µM·h, the Cmax stood at 536 ± 260 nM, the MRT last was determined as 5.61 ± 0.34 h and the Tmax was found to be 2.75 ± 1.26 h. For the same compound, in series [1], the half-life is 2.38 ± 0.8 h. The “Remaining amount 60 min later” value in series [2] was determined as 77.44%. The “Remaining amount 60 min later” value in series [3] worked out at 29.72%.
`CC(C)COc1ccc(CNC(=O)N(Cc2ccc(F)cc2)C2CCN(C)CC2)nc1` [Compound 19]: the IC50 on hERG potassium channels worked out at 480 nM; on 5-HT2A receptor [4], 49.9 nM; on 5-HT2A receptor [5], 6.94 nM.
For the compound `CC1(C)Cc2cc(CNC(=O)N(Cc3ccc(F)cn3)C3CCNCC3)ccc2O1` [Compound 23], the IC50 at hERG potassium channels is over 10000 nM; at 5-HT2A receptor [4], 5.64 nM; on 5-HT2A receptor [5], 6.02 nM.
In the case of `CN1CCC(N(Cc2ccc(F)cn2)C(=O)NCc2ccc3c(c2)CC(C)(C)O3)CC1` [Compound 24], the IC50 came to 3610 nM at hERG potassium channels, 2.54 nM on 5-HT2A receptor [4] and 3.49 nM on 5-HT2A receptor [5].
Regarding `CN1CCC(N(Cc2ccc(F)cn2)C(=O)NCc2ccc(OC(CF)CF)cc2)CC1` [Compound 45], the IC50 at hERG potassium channels is 5500 nM; at 5-HT2A receptor [4], 7.04 nM; at 5-HT2A receptor [5], 2.42 nM.
